molecular target: T1, ALK (Homo sapiens, UniProt Q9UM73); assay: ALK kinase assay (HTRF); type: biochemical; settings: apparent Ki from IC50 by Cheng-Prusoff; ALK (Millipore) 3 nM or 4 nM, 50 μM ATP, 1 h at room temperature; read-out: HTRF_ALK Human - Ki
T1 construct: purchased Millipore
T1 sequence (Q9UM73 19-1620): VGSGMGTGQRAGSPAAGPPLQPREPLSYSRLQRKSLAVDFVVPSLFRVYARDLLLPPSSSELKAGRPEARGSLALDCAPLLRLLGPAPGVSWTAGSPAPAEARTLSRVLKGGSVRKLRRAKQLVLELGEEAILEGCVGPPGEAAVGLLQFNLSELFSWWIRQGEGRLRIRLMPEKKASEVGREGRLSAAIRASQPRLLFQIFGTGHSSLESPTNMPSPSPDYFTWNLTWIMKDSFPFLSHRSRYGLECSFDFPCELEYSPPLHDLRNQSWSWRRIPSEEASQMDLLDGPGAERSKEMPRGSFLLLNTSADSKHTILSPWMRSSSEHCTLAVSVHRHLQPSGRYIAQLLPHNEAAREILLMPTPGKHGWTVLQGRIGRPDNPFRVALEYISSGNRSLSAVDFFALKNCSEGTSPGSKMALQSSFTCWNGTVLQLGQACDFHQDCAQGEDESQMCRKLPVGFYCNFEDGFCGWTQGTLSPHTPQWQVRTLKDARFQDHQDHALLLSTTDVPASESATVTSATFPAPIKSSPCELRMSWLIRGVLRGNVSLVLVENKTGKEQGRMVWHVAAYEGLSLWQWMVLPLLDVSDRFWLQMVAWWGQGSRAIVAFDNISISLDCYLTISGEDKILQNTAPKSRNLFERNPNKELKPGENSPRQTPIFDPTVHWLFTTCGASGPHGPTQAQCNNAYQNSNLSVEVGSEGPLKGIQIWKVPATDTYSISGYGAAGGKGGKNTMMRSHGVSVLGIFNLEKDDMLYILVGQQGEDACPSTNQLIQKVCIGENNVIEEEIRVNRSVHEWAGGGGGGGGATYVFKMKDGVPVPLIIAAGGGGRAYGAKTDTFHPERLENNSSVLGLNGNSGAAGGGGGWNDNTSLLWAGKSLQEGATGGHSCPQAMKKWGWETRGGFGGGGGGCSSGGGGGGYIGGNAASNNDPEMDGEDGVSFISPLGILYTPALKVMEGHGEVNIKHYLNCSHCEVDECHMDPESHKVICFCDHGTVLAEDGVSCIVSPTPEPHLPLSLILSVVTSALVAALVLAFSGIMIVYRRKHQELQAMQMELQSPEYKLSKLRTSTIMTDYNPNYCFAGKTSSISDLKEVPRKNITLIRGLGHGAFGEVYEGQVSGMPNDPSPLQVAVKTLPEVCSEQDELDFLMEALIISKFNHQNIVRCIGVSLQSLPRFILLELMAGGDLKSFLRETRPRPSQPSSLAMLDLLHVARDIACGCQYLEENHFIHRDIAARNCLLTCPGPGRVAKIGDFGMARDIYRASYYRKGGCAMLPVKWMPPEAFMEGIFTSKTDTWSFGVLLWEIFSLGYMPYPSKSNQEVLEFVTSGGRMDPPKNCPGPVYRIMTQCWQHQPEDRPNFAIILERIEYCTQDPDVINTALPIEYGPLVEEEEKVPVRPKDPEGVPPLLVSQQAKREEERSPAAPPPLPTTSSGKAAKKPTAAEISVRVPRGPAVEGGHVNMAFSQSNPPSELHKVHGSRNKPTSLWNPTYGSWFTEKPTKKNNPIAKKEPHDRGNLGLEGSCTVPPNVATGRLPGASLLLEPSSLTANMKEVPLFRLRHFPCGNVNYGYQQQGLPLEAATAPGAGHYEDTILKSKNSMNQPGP

Going from `COc1cc(N2CCNCC2)ccc1Nc1nc(Cc2c(Cl)cccc2Cl)cc2c1C(=O)NCN2` [Example 1, 7-(2,6-dichlorobenzyl)-5-{[2-methoxy-4-(piperazin-1-yl)phenyl]amino}-2,3-dihydropyrido[4,3-d]pyrimidin-4(1H)-one] to `COc1cc(N2CCNCC2)ccc1Nc1cc(Cc2c(Cl)cccc2Cl)nc2c1C(=O)NCCN2` [Example 3, 8-(2,6-dichlorobenzyl)-6-{[2-methoxy-4-(piperazin-1-yl)phenyl]amino}-1,2,3,4-tetrahydro-5H-pyrido[2,3-e][1,4]diazepin-5-one], the Ki rises from 11 nM to 660 nM (60-fold).

`COc1cc(N2CCNCC2)ccc1Nc1nc(Cc2c(Cl)cccc2Cl)cc2cnnc(O)c12` [Example 2, 7-(2,6-dichlorobenzyl)-5-{[2-methoxy-4-(piperazin-1-yl)phenyl]amino}pyrido[3,4-d]pyridazin-4-ol] and `COc1cc(N2CCNCC2)ccc1Nc1nc(Nc2c(Cl)cccc2Cl)cc2cnnc(O)c12` [Example 10, 7-[(2,6-dichlorophenyl)amino]-5-{[2-methoxy-4-(piperazin-1-yl)phenyl]amino}pyrido[3,4-d]pyridazin-4-ol] are within 1.5-fold of each other in Ki: 1.4 nM for the first, 2 nM for the second.

Going from `O=C1NCCNc2nc(Cc3c(Cl)cccc3Cl)cc(Nc3ccc(N4CCNCC4)cc3)c21` [Example 4, 8-(2,6-dichlorobenzyl)-6-{[4-(piperazin-1-yl)phenyl]amino}-1,2,3,4-tetrahydro-5H-pyrido[2,3-e][1,4]diazepin-5-one] to `O=C1NCCNc2cc(Cc3c(Cl)cccc3Cl)nc(Nc3ccc(N4CCNCC4)cc3)c21` [Example 6, 8-(2,6-dichlorobenzyl)-6-{[4-(piperazin-1-yl)phenyl]amino}-1,2,3,4-tetrahydro-5H-pyrido[4,3-e][1,4]diazepin-5-one], the Ki falls from 940 nM to 602 nM (1.6-fold). The second binds more tightly here.

First: Oc1nncc2cc(Cc3c(Cl)cccc3Cl)nc(Nc3ccc(N4CCNCC4)cc3)c12 [Example 5, 7-(2,6-dichlorobenzyl)-5-{[4-(piperazin-1-yl)phenyl]amino}pyrido[3,4-d]pyridazin-4-ol]
Second: Cc1cc(N2CCNCC2)cc(C)c1Nc1nc(Cc2c(Cl)cccc2Cl)cc2cnnc(O)c12 [Example 21, 7-(2,6-dichlorobenzyl)-5-{[2,6-dimethyl-4-(piperazin-1-yl)phenyl]amino}pyrido[3,4-d]pyridazin-4-ol]
The Ki of the first is 370-fold lower: 1 nM for the first, 368 nM for the second.

`Cc1cc(Nc2nc(Cc3c(Cl)cccc3Cl)cc3cn[nH]c(=O)c23)ccc1N1CCNCC1` [Example 7, 7-(2,6-dichlorobenzyl)-5-{[3-methyl-4-(piperazin-1-yl)phenyl]amino}pyrido[3,4-d]pyridazin-4(3H)-one] and `O=c1[nH]ncc2cc(Cc3c(Cl)cccc3Cl)nc(Nc3ccc(N4CCNCC4)c(Cl)c3)c12` [Example 13, 5-{[3-chloro-4-(piperazin-1-yl)phenyl]amino}-7-(2,6-dichlorobenzyl)pyrido[3,4-d]pyridazin-4(3H)-one] are the same in Ki: 1 nM for the first, 1 nM for the second.

First: COc1cc(N2CCN(C3CCCCC3)CC2)ccc1Nc1nc(Cc2c(Cl)cccc2Cl)cc2cn[nH]c(=O)c12 [Example 8, 5-{[4-(4-cyclohexylpiperazin-1-yl)-2-methoxyphenyl]amino}-7-(2,6-dichlorobenzyl)pyrido[3,4-d]pyridazin-4(3H)-one]
Second: COc1cc(N2CCN(C3CCN(C)CC3)CC2)ccc1Nc1nc(Cc2c(Cl)cccc2Cl)cc2cn[nH]c(=O)c12 [Example 15, 7-(2,6-dichlorobenzyl)-5-({2-methoxy-4-[4-(1-methylpiperidin-4-yl)piperazin-1-yl]phenyl}amino)pyrido[3,4-d]pyridazin-4(3H)-one]
The Ki of the first is higher: > 470 nM for the first, 3 nM for the second.

First: COc1cc(N2CCN(C(=O)c3ccccc3)CC2)ccc1Nc1nc(Cc2c(Cl)cccc2Cl)cc2cnnc(O)c12 [Example 9, [4-(4-{[7-(2,6-dichlorobenzyl)-4-hydroxypyrido[3,4-d]pyridazin-5-yl]amino}-3-methoxyphenyl)piperazin-1-yl](phenyl)methanone]
Second: COc1cc(N2CCN(C(=O)CN(C)C)CC2)ccc1Nc1nc(Cc2c(Cl)cccc2Cl)cc2cnnc(O)c12 [Example 12, 1-[4-(4-{[7-(2,6-dichlorobenzyl)-4-hydroxypyrido[3,4-d]pyridazin-5-yl]amino}-3-methoxyphenyl)piperazin-1-yl]-2-(dimethylamino)ethanone]
The Ki of the first is higher: > 470 nM for the first, 3 nM for the second. The second binds more tightly here.

`COc1cc(N2CCN(S(=O)(=O)C(C)C)CC2)ccc1Nc1nc(Cc2c(Cl)cccc2Cl)cc2cnnc(O)c12` [Example 11, 7-(2,6-dichlorobenzyl)-5-({2-methoxy-4-[4-(propan-2-ylsulfonyl)piperazin-1-yl]phenyl}amino)pyrido[3,4-d]pyridazin-4-ol] and `COc1cc(N2CCN(C(=O)CC(C)C)CC2)ccc1Nc1nc(Cc2c(Cl)cccc2Cl)cc2cn[nH]c(=O)c12` [Example 19, 7-(2,6-dichlorobenzyl)-5-({2-methoxy-4-[4-(3-methylbutanoyl)piperazin-1-yl]phenyl}amino)pyrido[3,4-d]pyridazin-4(3H)-one] cannot be ordered by Ki: > 4700 nM for the first, > 4700 nM for the second.

First: O=c1[nH]ncc2cc(Cc3c(Cl)cccc3Cl)nc(Nc3ccc(N4CCNCC4)cn3)c12 [Example 14, 7-(2,6-dichlorobenzyl)-5-{[5-(piperazin-1-yl)pyridin-2-yl]amino}pyrido[3,4-d]pyridazin-4(3H)-one]
Second: O=c1[nH]ncc2cc(Cc3c(Cl)cccc3Cl)nc(Nc3cc(F)c(N4CCNCC4)cc3F)c12 [Example 20, 7-(2,6-dichlorobenzyl)-5-{[2,5-difluoro-4-(piperazin-1-yl)phenyl]amino}pyrido[3,4-d]pyridazin-4(3H)-one]
The Ki of the first is 4.3-fold higher: 13 nM for the first, 3 nM for the second.

Compared with `COc1cc(N2CCN(CCC(C)C)CC2)ccc1Nc1nc(Cc2c(Cl)cccc2Cl)cc2cn[nH]c(=O)c12` [Example 16, 7-(2,6-dichlorobenzyl)-5-({2-methoxy-4-[4-(3-methylbutyl)piperazin-1-yl]phenyl}amino)pyrido[3,4-d]pyridazin-4(3H)-one], `COc1cc(N2CCN(C)CC2)ccc1Nc1nc(Cc2c(Cl)cccc2Cl)cc2cn[nH]c(=O)c12` [Example 30, 7-(2,6-dichlorobenzyl)-5-{[2-methoxy-4-(4-methylpiperazin-1-yl)phenyl]amino}pyrido[3,4-d]pyridazin-4(3H)-one] is lower in Ki: > 4700 nM for the first, 3 nM for the second. The second binds more tightly here.

Compared with `COc1cc(CCN2CCCC2)ccc1Nc1nc(Cc2c(Cl)cccc2Cl)cc2cn[nH]c(=O)c12` [Example 17, 7-(2,6-dichlorobenzyl)-5-({2-methoxy-4-[2-(pyrrolidin-1-yl)ethyl]phenyl}amino)pyrido[3,4-d]pyridazin-4(3H)-one], `COc1cc(CC(=O)N2CCCC2)ccc1Nc1nc(Cc2c(Cl)cccc2Cl)cc2cn[nH]c(=O)c12` [Example 18, 7-(2,6-dichlorobenzyl)-5-({2-methoxy-4-[2-oxo-2-(pyrrolidin-1-yl)ethyl]phenyl}amino)pyrido[3,4-d]pyridazin-4(3H)-one] is 520-fold higher in Ki: 6 nM for the first, 3100 nM for the second. The first binds more tightly here.

First: COc1cc(N2CCNCC2)ccc1Nc1nc(Nc2ccccc2S(=O)(=O)C(C)C)cc2cn[nH]c(=O)c12 [Example 22, 5-{[2-methoxy-4-(piperazin-1-yl)phenyl]amino}-7-{[2-(propan-2-ylsulfonyl)phenyl]amino}pyrido[3,4-d]pyridazin-4(3H)-one]
Second: COc1cc(N2CCNCC2)ccc1Nc1nc(Nc2ccccc2Cl)cc2cn[nH]c(=O)c12 [Example 24, 7-[(2-chlorophenyl)amino]-5-{[2-methoxy-4-(piperazin-1-yl)phenyl]amino}pyrido[3,4-d]pyridazin-4(3H)-one]
The Ki of the first is 2-fold lower: 2 nM for the first, 4 nM for the second. The first binds more tightly here.

Going from `COc1cc(N2CCNCC2)ccc1Nc1nc(NC2=N[C@H](C(C)C)CO2)cc2cnnc(O)c12` [Example 23, 5-{[2-methoxy-4-(piperazin-1-yl)phenyl]amino}-7-{[(4R)-4-(propan-2-yl)-4,5-dihydro-1,3-oxazol-2-yl]amino}pyrido[3,4-d]pyridazin-4-ol] to `COc1cc(N2CCNCC2)ccc1Nc1nc(Nc2ccc(Cl)cc2Cl)cc2cnnc(O)c12` [Example 34, 7-[(2,4-dichlorophenyl)amino]-5-{[2-methoxy-4-(piperazin-1-yl)phenyl]amino}pyrido[3,4-d]pyridazin-4-ol], the Ki falls from 21 nM to 4 nM (5.2-fold). The second binds more tightly here.

Compared with `COc1cc(N2CCNCC2)ccc1Nc1nc(Nc2cc(Cl)ccc2F)cc2cn[nH]c(=O)c12` [Example 25, 7-[(5-chloro-2-fluorophenyl)amino]-5-{[2-methoxy-4-(piperazin-1-yl)phenyl]amino}pyrido[3,4-d]pyridazin-4(3H)-one], `COc1cc(N2CCNCC2)ccc1Nc1nc(Nc2cc(Cl)ccc2Cl)cc2cn[nH]c(=O)c12` [Example 28, 7-[(2,5-dichlorophenyl)amino]-5-{[2-methoxy-4-(piperazin-1-yl)phenyl]amino}pyrido[3,4-d]pyridazin-4(3H)-one] is 1.5-fold lower in Ki: 6 nM for the first, 4 nM for the second. The second binds more tightly here.

Compared with `COc1cc(N2CCNCC2)ccc1Nc1nc(Nc2cc(F)ccc2Cl)cc2cn[nH]c(=O)c12` [Example 27, 7-[(2-chloro-5-fluorophenyl)amino]-5-{[2-methoxy-4-(piperazin-1-yl)phenyl]amino}pyrido[3,4-d]pyridazin-4(3H)-one], `COc1cc(N2CCNCC2)ccc1Nc1nc(Nc2c(F)cccc2Cl)cc2cn[nH]c(=O)c12` [Example 29, 7-[(2-chloro-6-fluorophenyl)amino]-5-{[2-methoxy-4-(piperazin-1-yl)phenyl]amino}pyrido[3,4-d]pyridazin-4(3H)-one] is 3-fold lower in Ki: 3 nM for the first, 1 nM for the second.

Going from `COc1cc(N2CCNCC2)ccc1Nc1nc(Nc2cc(Cl)cc(Cl)c2)cc2cn[nH]c(=O)c12` [Example 31, 7-[(3,5-dichlorophenyl)amino]-5-{[2-methoxy-4-(piperazin-1-yl)phenyl]amino}pyrido[3,4-d]pyridazin-4(3H)-one] to `COc1cc(N2CCNCC2)ccc1Nc1nc(Nc2c(Cl)cncc2Cl)cc2cn[nH]c(=O)c12` [Example 33, 7-[(3,5-dichloropyridin-4-yl)amino]-5-{[2-methoxy-4-(piperazin-1-yl)phenyl]amino}pyrido[3,4-d]pyridazin-4(3H)-one], the Ki falls from 19 nM to 0.2 nM (95-fold).

`COc1cc(N2CCNCC2)ccc1Nc1nc(Nc2c(F)cccc2F)cc2cn[nH]c(=O)c12` [Example 32, 7-[(2,6-difluorophenyl)amino]-5-{[2-methoxy-4-(piperazin-1-yl)phenyl]amino}pyrido[3,4-d]pyridazin-4(3H)-one] gave a Ki of 2 nM.

Reference: US20140155389A1, “BICYCLIC INHIBITORS OF ALK” (ABBVIE INC., priority 2011, published 2014)
